A word on the IC50: it is the point on the concentration scale where inhibition reaches its midpoint.

One assay has as its target T1, human LXRβ (Homo sapiens, UniProt P55055).
T1 construct: biotin (biotinylated); made in house; host or cells: E. coli (crude extract)
T1 sequence (P55055 1-460): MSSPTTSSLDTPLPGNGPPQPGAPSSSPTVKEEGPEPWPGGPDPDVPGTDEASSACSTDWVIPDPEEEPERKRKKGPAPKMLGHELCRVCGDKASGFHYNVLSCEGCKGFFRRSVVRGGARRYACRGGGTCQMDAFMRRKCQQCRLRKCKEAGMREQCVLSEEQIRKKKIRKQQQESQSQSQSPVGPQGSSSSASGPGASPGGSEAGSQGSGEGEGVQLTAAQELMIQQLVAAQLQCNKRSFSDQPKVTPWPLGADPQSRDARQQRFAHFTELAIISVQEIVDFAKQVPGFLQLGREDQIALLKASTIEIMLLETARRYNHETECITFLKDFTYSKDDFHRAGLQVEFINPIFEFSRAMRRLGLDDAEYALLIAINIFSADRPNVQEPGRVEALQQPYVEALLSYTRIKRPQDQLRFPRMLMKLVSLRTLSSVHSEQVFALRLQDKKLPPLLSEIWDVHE
The experiment in a line: Ligand-binding test procedure for human LXRβ (3H T0901317 tracer, flash plates). The conditions noted are these: biotinylated hLXRβ from E. coli extract, +4° C. over night, read-out: hLXRB binding assay Mean IC50. The method, then: I. Ligand-Binding Test Procedure for Human LXRβ.
(§1) Buffer: 100 mM KCl, 100 mM TRIS (pH 7.4 at +4° C.), 8.6% glycerol, 0.1 mM PMSF*, 2 mM MTG*, 0.2% CHAPS (* not used in wash buffer)
Receptor source: E. coli extract from cells expressing biotinylated hLXRβ. Extract was made in a similar buffer as above, but with 50 mM TRIS.
(§2) Washed streptavidin and coated flash plates with wash buffer.
(§3) Diluted receptor extract to give Bmax ˜4000 cpm and add to the wells.
(§4) Wrapped the plates in aluminum foil and stored them at +4° C. over night.
(§5) Made a dilution series in DMSO of the test ligands.
(§6) Made a 5 nM solution of the radioactive tracer in buffer.
Mixed 250 μl diluted tracer with 50 of the test ligand from each concentration of the dilution series.
(§7) Washed the receptor-coated flash plates.
(§8) Added 200 μl per well of the ligand/radiolabel mixture to the receptor-coated flash plates.
(§9) Wrapped the plates in aluminum foil and incubate at +4° C. over night.
(§10) Aspirated wells, and wash the flashed plates. Sealed the plate.
(§11) Measured the remaining radioactivity in the plate.

The next assay addresses T2, human LXRα (Homo sapiens, UniProt Q13133).
T2 construct: biotin (biotinylated); made in house; host or cells: E. coli (crude extract)
T2 sequence (Q13133 1-447): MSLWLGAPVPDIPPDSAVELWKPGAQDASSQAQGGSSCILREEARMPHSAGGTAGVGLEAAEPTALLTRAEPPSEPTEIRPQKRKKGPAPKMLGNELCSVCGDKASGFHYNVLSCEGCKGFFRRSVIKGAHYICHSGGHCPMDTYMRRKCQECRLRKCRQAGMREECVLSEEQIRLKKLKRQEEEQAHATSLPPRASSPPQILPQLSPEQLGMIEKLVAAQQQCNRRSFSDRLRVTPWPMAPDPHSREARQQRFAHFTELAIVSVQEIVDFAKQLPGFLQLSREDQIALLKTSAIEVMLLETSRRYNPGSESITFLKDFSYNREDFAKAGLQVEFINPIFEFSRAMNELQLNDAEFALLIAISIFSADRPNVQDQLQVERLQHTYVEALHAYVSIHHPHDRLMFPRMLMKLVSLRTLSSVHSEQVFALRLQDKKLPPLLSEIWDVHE
Put plainly: Ligand-binding test procedure for human LXRα (3H T0901317 tracer, flash plates). The conditions noted are these: biotinylated hLXRα from E. coli extract, +4° C. over night, read-out: hLXRa binding assay Mean IC50. The method, then:
II. Ligand-Binding Test Procedure for Human LXRα.
as §1
Receptor source: E. coli extract from cells expressing biotinylated hLXRα. Extract was made in a similar buffer as above, but with 50 mM TRIS.
as §2, §3, §4, §5, §6
Mixed 250 μl diluted tracer with 5 μl of the test ligand from each concentration of the dilution series.
as §7, §8, §9, §10, §11

`CC(C)(C(=O)O)c1ccc(COc2cccc(-c3ncnc4c(C(F)(F)F)cccc34)c2)cc1` [Example 44, 2-methyl-2-[4-({3-[8-(trifluoromethyl)quinazolin-4-yl]phenoxy}methyl)phenyl]propanoic acid]: the IC50 at human LXRβ and at human LXRα was > 1000 nM each time.

On to `O=C(O)Cc1ccc(COc2cccc(-c3ncnc4c(C(F)(F)F)cccc34)c2)cc1` [Example 45, [4-({3-[8-(trifluoromethyl)quinazolin-4-yl]phenoxy}methyl)phenyl]acetic acid], for which the IC50 at human LXRβ is 5290 nM; on human LXRα, > 1000 nM.

Regarding `CS(=O)(=O)c1cccc(Oc2ccc(Cl)c(-c3ncnc4c(C(F)(F)F)cccc34)c2)c1` [Example 49, 4-{2-chloro-5-[3-(methylsulfonyl)phenoxy]phenyl}-8-(trifluoromethyl)quinazoline], the IC50 on human LXRβ is 5 nM; on human LXRα it was 177 nM.

Consider `CCS(=O)(=O)c1cccc(Oc2ccc(Cl)c(-c3ncnc4c(C(F)(F)F)cccc34)c2)c1` [Example 50, 4-{2-chloro-5-[3-(ethylsulfonyl)phenoxy]phenyl}-8-(trifluoromethyl)quinazoline], for which the IC50 on human LXRβ came out at 5 nM; on human LXRα, 236 nM.

Take `CC(C)S(=O)(=O)c1cccc(Oc2ccc(Cl)c(-c3ncnc4c(C(F)(F)F)cccc34)c2)c1` [Example 51, 4-{2-chloro-5-[3-(isopropylsulfonyl)phenoxy]phenyl}-8-(trifluoromethyl)quinazoline]: the figures for the IC50 at human LXRβ and at human LXRα were 2 nM and 119 nM, respectively.

With `CS(=O)(=O)c1cccc(Oc2ccc(F)c(-c3ncnc4c(C(F)(F)F)cccc34)c2)c1` [Example 52, 4-{2-fluoro-5-[3-(methylsulfonyl)phenoxy]phenyl}-8-(trifluoromethyl)quinazoline], the values for the IC50 on human LXRβ and on human LXRα were 14 nM and 284 nM, respectively.

Regarding `CCS(=O)(=O)c1cccc(Oc2ccc(F)c(-c3ncnc4c(C(F)(F)F)cccc34)c2)c1` [Example 53, 4-{5-[3-(ethylsulfonyl)phenoxy]-2-fluorophenyl}-8-(trifluoromethyl)quinazoline], the IC50 is 8 nM at human LXRβ and 233 nM at human LXRα.

Turning to `CC(C)S(=O)(=O)c1cccc(Oc2ccc(F)c(-c3ncnc4c(C(F)(F)F)cccc34)c2)c1` [Example 54, 4-{2-fluoro-5-[3-(isopropylsulfonyl)phenoxy]phenyl}-8-(trifluoromethyl)quinazoline], the IC50 at human LXRβ was determined as 5 nM; on human LXRα it was 176 nM.

As for `CS(=O)(=O)c1cc(F)cc(Oc2ccc(F)c(-c3ncnc4c(C(F)(F)F)cccc34)c2)c1` [Example 55, 4-{2-fluoro-5-[3-fluoro-5-(methylsulfonyl)phenoxy]phenyl}-8-(trifluoromethyl)quinazoline], the IC50 on human LXRβ came to 35 nM; at human LXRα, 782 nM.

Regarding `CS(=O)(=O)c1cccc(COc2ccc(F)c(-c3ncnc4c(C(F)(F)F)cccc34)c2)c1` [Example 56, 4-(2-fluoro-5-{[3-(methylsulfonyl)benzyl]oxy}phenyl)-8-(trifluoromethyl)quinazoline], the IC50 amounted to 44 nM at human LXRβ and 787 nM at human LXRα.

Turning to `CS(=O)(=O)c1cc(Cl)cc(Oc2ccc(F)c(-c3ncnc4c(C(F)(F)F)cccc34)c2)c1` [Example 57, 4-{5-[3-chloro-5-(methylsulfonyl)phenoxy]-2-fluorophenyl}-8-(trifluoromethyl)quinazoline], the IC50 was 214 nM at human LXRβ and 2340 nM at human LXRα.

Consider `Cc1nc(-c2cc(Oc3cccc(S(C)(=O)=O)c3)ccc2Cl)c2cccc(C(F)(F)F)c2n1` [Example 58, 4-{2-chloro-5-[3-(methylsulfonyl)phenoxy]phenyl}-2-methyl-8-(trifluoromethyl)quinazoline], for which the values for the IC50 at human LXRβ and on human LXRα were 20 nM and 1360 nM, respectively.

As to `CCS(=O)(=O)c1cccc(Oc2ccc(Cl)c(-c3nc(C)nc4c(C(F)(F)F)cccc34)c2)c1` [Example 59, 4-{2-chloro-5-[3-(ethylsulfonyl)phenoxy]phenyl}-2-methyl-8-(trifluoromethyl)quinazoline], the IC50 on human LXRβ stood at 19 nM; on human LXRα, 2370 nM.

`Cc1nc(-c2cc(Oc3cccc(S(=O)(=O)C(C)C)c3)ccc2Cl)c2cccc(C(F)(F)F)c2n1` [Example 60, 4-{2-chloro-5-[3-(isopropylsulfonyl)phenoxy]phenyl}-2-methyl-8-(trifluoromethyl)quinazoline]: the IC50 on human LXRβ was determined as 16 nM; at human LXRα it was 524 nM.

Take `Cc1nc(-c2cc(Oc3cc(F)cc(S(C)(=O)=O)c3)ccc2Cl)c2cccc(C(F)(F)F)c2n1` [Example 61, 4-{2-chloro-5-[3-fluoro-5-(methylsulfonyl)phenoxy]phenyl}-2-methyl-8-(trifluoromethyl)quinazoline]: the values for the IC50 on human LXRβ and at human LXRα were 49 nM and 1790 nM, respectively.

As for `CCS(=O)(=O)c1cc(F)cc(Oc2ccc(Cl)c(-c3nc(C)nc4c(C(F)(F)F)cccc34)c2)c1` [Example 62, 4-{2-chloro-5-[3-(ethylsulfonyl)-5-fluorophenoxy]phenyl}-2-methyl-8-(trifluoromethyl)quinazoline], the IC50 on human LXRβ stood at 63 nM; on human LXRα, 1430 nM.

For the compound `Cc1nc(-c2cc(OCc3cccc(S(C)(=O)=O)c3)ccc2Cl)c2cccc(C(F)(F)F)c2n1` [Example 63, 4-(2-chloro-5-{[3-(methylsulfonyl)benzyl]oxy}phenyl)-2-methyl-8-(trifluoromethyl)quinazoline], the values for the IC50 at human LXRβ and on human LXRα were 181 nM and 3380 nM, respectively.

`CS(=O)(=O)c1cc(F)cc(Oc2ccc(F)c(-c3ncnc4c(Cl)cccc34)c2)c1` [Example 64, 8-chloro-4-{2-fluoro-5-[3-fluoro-5-(methylsulfonyl)phenoxy]phenyl}quinazoline]: the IC50 on human LXRβ is 81 nM; on human LXRα, 1830 nM.

In the case of `CCS(=O)(=O)c1cc(F)cc(Oc2ccc(F)c(-c3ncnc4c(Cl)cccc34)c2)c1` [Example 65, 8-chloro-4-{5-[3-(ethylsulfonyl)-5-fluorophenoxy]-2-fluorophenyl}quinazoline], the IC50 was found to be 152 nM on human LXRβ and 2950 nM at human LXRα.

As for `CS(=O)(=O)c1cccc(COc2ccc(F)c(-c3ncnc4c(Cl)cccc34)c2)c1` [Example 66, 8-chloro-4-(2-fluoro-5-{[3-(methylsulfonyl)benzyl)oxy]phenyl}quinazoline], the IC50 at human LXRβ worked out at 99 nM; on human LXRα it was 1540 nM.

Consider `CCS(=O)(=O)c1cccc(Oc2ccc(F)c(-c3ncnc4c(Cl)cccc34)c2)c1` [Example 67, 8-chloro-4-{2-fluoro-5-[3-(ethylsulfonyl)phenoxy]phenyl}quinazoline], for which the IC50 on human LXRβ turned out to be 36 nM; on human LXRα it was 712 nM.

On to `CC(C)S(=O)(=O)c1cccc(Oc2ccc(F)c(-c3ncnc4c(Cl)cccc34)c2)c1` [Example 68, 8-chloro-4-(2-fluoro-5-{[3-(1-methylethyl)sulfonyl]phenoxy}phenyl)quinazoline], for which the 50% inhibitory concentration (IC50) was found to be 15 nM on human LXRβ and 597 nM on human LXRα.

Turning to `O=S(=O)(CCCOC1CCCCO1)c1cccc(Oc2ccc(F)c(-c3ncnc4c(Cl)cccc34)c2)c1` (stereo not shown) [Example 69, 8-chloro-4-[2-fluoro-5-(3-{[3-(tetrahydro-2H-pyran-2-yloxy)propyl]sulfonyl}phenoxy)phenyl]quinazoline], the figures for the IC50 at human LXRβ and at human LXRα were 95 nM and 265 nM, respectively.

For the origin of these results see US20100273816A1, “Quinazoline Compounds” (priority 2007, published 2010).
